30 molecules from paper PMC12155096 (International Journal of Molecular Sciences, 2025) can be followed below.

Broadly, the AC50 is the midpoint of the concentration-response curve, whichever way the signal moves.

Each structure is given as a SMILES string. Like-named read-outs stand apart in the source and are kept apart here.

One data set addresses human CYP2C19 (Homo sapiens, UniProt P33261). Description: biochemical.
In another data set the target is human CYP2C9 (Homo sapiens, UniProt P11712). Description: biochemical.
A further data set addresses human CYP2D6 (Homo sapiens, UniProt P10635).
The target of the next data set is CYP3A4 (Homo sapiens, UniProt P08684). Nature of the data set: biochemical.
A further data set concerns the target T1, human CYP1A2 (Homo sapiens, UniProt P05177).
T1 sequence (P05177 1-516): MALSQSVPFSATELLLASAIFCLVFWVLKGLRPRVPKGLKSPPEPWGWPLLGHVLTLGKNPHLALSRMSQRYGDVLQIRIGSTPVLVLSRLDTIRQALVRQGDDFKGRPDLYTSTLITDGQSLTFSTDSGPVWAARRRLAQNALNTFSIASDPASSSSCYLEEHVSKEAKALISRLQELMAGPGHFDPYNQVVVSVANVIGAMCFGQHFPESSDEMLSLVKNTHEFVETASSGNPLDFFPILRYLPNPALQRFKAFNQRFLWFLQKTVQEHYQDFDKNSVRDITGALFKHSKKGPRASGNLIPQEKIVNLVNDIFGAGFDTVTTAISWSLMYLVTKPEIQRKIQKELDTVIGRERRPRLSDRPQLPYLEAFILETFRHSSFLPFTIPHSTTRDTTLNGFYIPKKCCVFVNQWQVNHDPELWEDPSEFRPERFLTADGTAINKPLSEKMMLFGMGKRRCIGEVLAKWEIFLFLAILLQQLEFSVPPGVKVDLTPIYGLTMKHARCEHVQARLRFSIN
Nature of the data set: biochemical.

Setting [1] is: CYP2C19 AC50 (half-maximal activity concentration).
[2] abbreviates: CYP2C9 AC50 (half-maximal activity concentration).
The mark [3] stands for this setting: CYP3A4 AC50 (half-maximal activity concentration).
The mark [4] stands for this setting: CYP1A2 AC50 (half-maximal activity concentration).

Chain of human CYP2C9 (P11712 whole entry): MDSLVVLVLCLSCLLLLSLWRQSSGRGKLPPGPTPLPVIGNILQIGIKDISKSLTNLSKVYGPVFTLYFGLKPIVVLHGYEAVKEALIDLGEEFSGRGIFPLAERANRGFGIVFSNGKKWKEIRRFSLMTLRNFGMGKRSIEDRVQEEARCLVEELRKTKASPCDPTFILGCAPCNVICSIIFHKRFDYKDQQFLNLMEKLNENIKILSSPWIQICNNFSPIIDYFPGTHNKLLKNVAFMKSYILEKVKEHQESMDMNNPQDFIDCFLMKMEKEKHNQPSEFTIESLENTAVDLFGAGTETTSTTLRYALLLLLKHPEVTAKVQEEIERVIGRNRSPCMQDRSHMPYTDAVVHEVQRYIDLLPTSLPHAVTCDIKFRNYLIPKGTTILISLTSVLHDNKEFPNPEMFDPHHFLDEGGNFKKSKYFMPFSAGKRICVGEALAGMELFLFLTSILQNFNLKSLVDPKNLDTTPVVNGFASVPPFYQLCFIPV
Chain of human CYP2D6 (P10635 whole entry): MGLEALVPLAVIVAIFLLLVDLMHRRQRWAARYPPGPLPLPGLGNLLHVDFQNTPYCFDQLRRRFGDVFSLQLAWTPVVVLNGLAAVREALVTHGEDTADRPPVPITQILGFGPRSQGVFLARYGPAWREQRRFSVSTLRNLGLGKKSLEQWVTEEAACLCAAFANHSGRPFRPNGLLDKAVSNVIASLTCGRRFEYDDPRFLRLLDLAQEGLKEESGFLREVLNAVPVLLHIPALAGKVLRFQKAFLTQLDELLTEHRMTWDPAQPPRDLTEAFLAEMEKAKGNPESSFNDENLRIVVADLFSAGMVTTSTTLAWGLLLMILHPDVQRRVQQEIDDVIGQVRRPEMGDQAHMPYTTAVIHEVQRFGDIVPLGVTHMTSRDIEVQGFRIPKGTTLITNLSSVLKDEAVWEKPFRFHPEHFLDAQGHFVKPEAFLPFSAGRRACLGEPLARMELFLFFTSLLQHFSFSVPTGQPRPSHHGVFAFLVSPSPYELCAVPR
Chain of human CYP2C19 (P33261 whole entry): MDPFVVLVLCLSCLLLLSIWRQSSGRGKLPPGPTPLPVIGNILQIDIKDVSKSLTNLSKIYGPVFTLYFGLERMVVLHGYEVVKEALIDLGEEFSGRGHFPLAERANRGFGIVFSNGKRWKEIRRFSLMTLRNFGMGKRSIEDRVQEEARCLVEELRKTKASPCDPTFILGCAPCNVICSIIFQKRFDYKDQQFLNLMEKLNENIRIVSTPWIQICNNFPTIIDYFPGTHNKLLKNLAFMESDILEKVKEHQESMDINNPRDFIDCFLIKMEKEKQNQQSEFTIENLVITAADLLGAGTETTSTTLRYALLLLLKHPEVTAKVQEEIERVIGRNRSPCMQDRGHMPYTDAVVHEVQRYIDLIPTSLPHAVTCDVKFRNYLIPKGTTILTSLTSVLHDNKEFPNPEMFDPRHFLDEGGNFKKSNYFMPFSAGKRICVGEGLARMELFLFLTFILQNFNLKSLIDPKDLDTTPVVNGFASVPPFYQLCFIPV
Chain of CYP3A4 (P08684 whole entry): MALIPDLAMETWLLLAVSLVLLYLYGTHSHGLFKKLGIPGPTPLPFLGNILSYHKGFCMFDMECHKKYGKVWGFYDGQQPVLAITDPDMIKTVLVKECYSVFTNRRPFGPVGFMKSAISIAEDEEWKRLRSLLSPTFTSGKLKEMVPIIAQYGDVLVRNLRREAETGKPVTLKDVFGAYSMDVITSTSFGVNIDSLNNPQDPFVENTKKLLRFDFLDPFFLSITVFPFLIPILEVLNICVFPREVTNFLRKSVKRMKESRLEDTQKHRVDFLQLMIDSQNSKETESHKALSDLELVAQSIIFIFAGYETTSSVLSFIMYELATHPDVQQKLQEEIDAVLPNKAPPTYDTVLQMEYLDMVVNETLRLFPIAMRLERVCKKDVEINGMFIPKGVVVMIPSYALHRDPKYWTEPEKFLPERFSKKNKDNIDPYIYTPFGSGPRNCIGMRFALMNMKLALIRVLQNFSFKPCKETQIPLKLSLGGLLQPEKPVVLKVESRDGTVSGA

As for `O=[N+]([O-])c1cccc2ccccc12` [1-Nitronaphthalene], the AC50 amounted to 59.8 µM at human CYP2C19 (setting [1]), 31.2 µM on human CYP2C9 (setting [2]), 15.6 µM on CYP3A4 (setting [3]) and 2.96 µM at human CYP1A2 (setting [4]). Besides, the “CYP2D6 AC50 (half-maximal activity concentration)” value (“CYP2D6 AC50” for short) on human CYP2D6 is “Inactive”.

As to `CCCCOC(=O)COc1ccc(Cl)cc1Cl` [2,4-D 1-butyl ester], the AC50 at human CYP2C19 came out at 30.5 ± 10 µM; at human CYP2C9, 35.6 µM; on CYP3A4 it was 2.69 ± 0.56 µM; on human CYP1A2, 35.7 ± 4.11 µM. The “CYP2D6 AC50” value on human CYP2D6 is recorded as “Inactive”.

For `CC(C)OC(=O)COc1ccc(Cl)cc1Cl` [2,4-D isopropyl ester], the AC50 at human CYP2C19 (setting [1]) came out at 15.5 µM; on human CYP2C9 (setting [2]), 35 µM; on CYP3A4 (setting [3]) it was 7.02 µM; at human CYP1A2 (setting [4]), 13.6 µM. Further, at human CYP2D6, the “CYP2D6 AC50” value was “Inconclusive inhibitor”.

Take `CCCCCCC(C=O)=Cc1ccccc1` [2-Benzylideneoctanal]: the AC50 turned out to be 25.6 µM on human CYP2C19 (setting [1]), 31.1 µM at human CYP2C9 (setting [2]), 7.81 µM at CYP3A4 (setting [3]) and 13.8 µM at human CYP1A2 (setting [4]). For the same molecule, the “CYP2D6 AC50” value at human CYP2D6 is “Inactive”.

For `O=[N+]([O-])c1ccccc1-c1ccccc1` [2-Nitro-1,1'-biphenyl], the half-maximal activity concentration (AC50) was 30.4 µM on human CYP2C19 (setting [1]), 22.6 µM on human CYP2C9 (setting [2]), 34.3 µM at CYP3A4 (setting [3]) and 1.66 µM at human CYP1A2 (setting [4]). Moreover, the “CYP2D6 AC50” value on human CYP2D6 is on record as “Inactive”.

With `O=C(OCCc1ccccc1)c1ccccc1` [2-Phenylethyl benzoate], the AC50 is 13.5 µM on human CYP2C19, 30.6 µM at human CYP2C9, 7.51 µM at CYP3A4 and 17.1 µM on human CYP1A2. Moreover, on human CYP2D6, the “CYP2D6 AC50” value is “Inconclusive inhibitor”.

On to `Nc1cc(Cl)cc(Cl)c1` [3,5-Dichloroaniline], for which the AC50 came to 17.7 µM at human CYP2C19 (setting [1]), 74.5 µM on human CYP2C9 (setting [2]), 43.2 µM on CYP3A4 (setting [3]) and 30.7 µM at human CYP1A2 (setting [4]). Besides, on human CYP2D6, the “CYP2D6 AC50” value is “Inactive”.

For `O=C(C=Cc1ccccc1)OCC=Cc1ccccc1` [3-Phenyl-2-propen-1-yl 3-phenylacrylate], the AC50 at human CYP2C19 (setting [1]) was determined as 31.8 µM; on human CYP2C9 (setting [2]) it was 29.4 µM; at CYP3A4 (setting [3]), 24.9 µM; at human CYP1A2 (setting [4]), 25.3 µM. Further, at human CYP2D6, the “CYP2D6 AC50” value was “Inactive”.

As to `Brc1ccc(Oc2ccc(Br)cc2)cc1` [4,4'-Dibromodiphenyl ether], the AC50 amounted to 3.02 µM at human CYP2C19 (setting [1]), 24.6 µM on human CYP2C9 (setting [2]), 28.4 µM at CYP3A4 (setting [3]) and 18.8 µM on human CYP1A2 (setting [4]). Moreover, the “CYP2D6 AC50” value on human CYP2D6 was “Inactive”.

Take `O=C(c1ccc(Cl)cc1)c1ccc(Cl)cc1` [4,4'-Dichlorobenzophenone]: the AC50 at human CYP2C19 (setting [1]) stood at 1.67 µM; at human CYP2C9 (setting [2]), 6.1 µM; at CYP3A4 (setting [3]), 11 µM; at human CYP1A2 (setting [4]), 2.34 µM. Moreover, the “CYP2D6 AC50” value on human CYP2D6 is “Inactive”.

As for `O=C(c1ccccc1)c1ccc(Cl)cc1` [4-Chlorobenzophenone], the AC50 came out at 14.7 µM at human CYP2C19, 50 µM on human CYP2C9, 35.6 µM at CYP3A4 and 3.84 µM on human CYP1A2. In addition, the “CYP2D6 AC50” value on human CYP2D6 is “Inconclusive inhibitor”.

Consider `O=C(/C=C/c1ccccc1)OCc1ccccc1` [Benzyl cinnamate], for which the concentration at half-maximal activity (AC50) on human CYP2C19 (setting [1]) was found to be 13.6 µM; on human CYP2C9 (setting [2]), 12.4 µM; at CYP3A4 (setting [3]), 21.5 µM; on human CYP1A2 (setting [4]), 7.8 µM. Further, the “CYP2D6 AC50” value at human CYP2D6 is recorded as “Inactive”.

For the molecule `O=[N+]([O-])C(Br)(CO)CO` [Bronopol], the AC50 on human CYP2C19 (setting [1]) is 5.81 µM; at human CYP2C9 (setting [2]), 4.61 µM; at CYP3A4 (setting [3]) it was 5.19 µM; at human CYP1A2 (setting [4]) it was 14.2 µM. Moreover, on human CYP2D6, the “CYP2D6 AC50” value is recorded as “Inactive”.

On to `CC(C)N(Cc1ccccc1)C(=O)C(C)(C)C` [Butam], for which the AC50 turned out to be 15.1 µM at human CYP2C19 (setting [1]), 34.3 µM on human CYP2C9 (setting [2]), 9.61 µM on CYP3A4 (setting [3]) and 32.6 µM on human CYP1A2 (setting [4]). The “CYP2D6 AC50” value on human CYP2D6 is “Inactive”.

As to `C[Si](Cl)(c1ccccc1)c1ccccc1` [Chloro(methyl)diphenylsilane], the AC50 turned out to be 2.26 µM on human CYP2C19 (setting [1]), 3.53 µM on human CYP2C9 (setting [2]), 23.4 µM on CYP3A4 (setting [3]) and 32.2 µM on human CYP1A2 (setting [4]). Also, the “CYP2D6 AC50” value on human CYP2D6 is “Inconclusive inhibitor”.

In the case of `CCOCCOC(=O)C=Cc1ccc(OC)cc1` [Cinoxate], the AC50 at human CYP2C19 (setting [1]) worked out at 29.2 µM; at human CYP2C9 (setting [2]), 13.9 µM; on CYP3A4 (setting [3]) it was 21.9 µM; on human CYP1A2 (setting [4]), 7.48 µM. Besides, the “CYP2D6 AC50” value on human CYP2D6 was “Inactive”.

Regarding `CCOC(=O)NC(C)(C)Cc1ccc(Cl)cc1` [Cloforex], the AC50 on human CYP2C19 (setting [1]) was determined as 5.34 µM; at human CYP2C9 (setting [2]), 15.6 µM; on CYP3A4 (setting [3]), 14.6 µM; at human CYP1A2 (setting [4]), 7.64 µM. Further, the “CYP2D6 AC50” value on human CYP2D6 is listed as “Inconclusive inhibitor”.

Consider `O=C(c1ccccc1)C1CCCCC1` [Cyclohexylphenylketone], for which the AC50 at human CYP2C19 (setting [1]) was 44.9 µM; on human CYP2C9 (setting [2]), 47.5 µM; at CYP3A4 (setting [3]) it was 29.2 µM; on human CYP1A2 (setting [4]), 37.4 µM. Further, the “CYP2D6 AC50” value at human CYP2D6 is “Inactive”.

Consider `CCCCOC(=O)CCCCC(=O)OCCCC` [Dibutyl hexanedioate], for which the AC50 was 57.6 µM at human CYP2C19, 16.1 µM on human CYP2C9, 15.4 µM at CYP3A4 and 41.7 µM on human CYP1A2. On human CYP2D6, the “CYP2D6 AC50” value was “Inactive”.

In the case of `COC(=O)C(C)Oc1ccc(Oc2ccc(Cl)cc2Cl)cc1` (stereo not drawn) [Diclofop-methyl], the AC50 was found to be 6.41 µM on human CYP2C19 (setting [1]), 27.5 µM on human CYP2C9 (setting [2]), 12.8 µM on CYP3A4 (setting [3]) and 38.5 µM at human CYP1A2 (setting [4]). Moreover, the “CYP2D6 AC50” value on human CYP2D6 is given as “Inconclusive”.

Regarding `O=C(OCCOCCOC(=O)c1ccccc1)c1ccccc1` [Diethylene glycol dibenzoate], the AC50 turned out to be 34.1 µM at human CYP2C19 (setting [1]), 12.7 µM on human CYP2C9 (setting [2]), 11.4 µM at CYP3A4 (setting [3]) and 8.29 µM at human CYP1A2 (setting [4]). Besides, the “CYP2D6 AC50” value at human CYP2D6 was “Inactive”.

In the case of `CC(C)OC(=O)c1ccccc1C(=O)OC(C)C` [Diisopropyl phthalate], the half-maximal activity concentration (AC50) on human CYP2C19 (setting [1]) came to 53.2 µM; on human CYP2C9 (setting [2]) it was 50.4 µM; at CYP3A4 (setting [3]), 31.9 µM; at human CYP1A2 (setting [4]) it was 3.31 µM. In addition, the “CYP2D6 AC50” value at human CYP2D6 is reported as “Inconclusive inhibitor”.

As to `COC(=O)CCCCCCCCC(=O)OC` [Dimethyl decanedioate], the AC50 on human CYP2C19 (setting [1]) was 64.5 µM; at human CYP2C9 (setting [2]), 50.5 µM; on CYP3A4 (setting [3]), 38.8 µM; on human CYP1A2 (setting [4]), 40.1 µM. Moreover, the “CYP2D6 AC50” value at human CYP2D6 is on record as “Inactive”.

Consider `O=[N+]([O-])c1cc(C2CCCCC2)c(O)c([N+](=O)[O-])c1` [Dinex], for which the AC50 stood at 39.8 µM on human CYP2C19 (setting [1]), 8.27 µM at human CYP2C9 (setting [2]), 22.5 µM on CYP3A4 (setting [3]) and 71.1 µM on human CYP1A2 (setting [4]). Besides, on human CYP2D6, the “CYP2D6 AC50” value was “Inconclusive inhibitor”.

Take `CCC1OCC(COc2ccc(Oc3ccccc3)cc2)O1` (stereo not drawn) [Diofenolan]: the AC50 was 21 µM at human CYP2C19, 29.4 µM on human CYP2C9, 35.7 µM at CYP3A4 and 30.8 µM on human CYP1A2. Also, the “CYP2D6 AC50” value on human CYP2D6 was “Inconclusive inhibitor”.

`CN(C)C(=O)C(c1ccccc1)c1ccccc1` [Diphenamid]: the AC50 at human CYP2C19 (setting [1]) turned out to be 53.7 µM; at human CYP2C9 (setting [2]), 38.4 µM; on CYP3A4 (setting [3]), 31.2 µM; on human CYP1A2 (setting [4]), 50.2 µM. Further, the “CYP2D6 AC50” value at human CYP2D6 is recorded as “Inactive”.

As for `O=C(Oc1ccccc1)c1ccccc1C(=O)Oc1ccccc1` [Diphenyl phthalate], the concentration at half-maximal activity (AC50) at human CYP2C19 (setting [1]) stood at 14.2 µM; at human CYP2C9 (setting [2]), 13.7 µM; on CYP3A4 (setting [3]) it was 7.65 µM; on human CYP1A2 (setting [4]) it was 4.94 µM. The “CYP2D6 AC50” value at human CYP2D6 was “Inactive”.

As for `CCCOC(=O)c1ccc(C(=O)OCCC)nc1` [Dipropyl 2,5-pyridinedicarboxylate], the AC50 on human CYP2C19 is 5.97 µM; at human CYP2C9, 7.68 µM; on CYP3A4, 31.9 µM; on human CYP1A2 it was 11.3 µM. Also, at human CYP2D6, the “CYP2D6 AC50” value is “Inactive”.

As for `CCCOC(=O)c1ccccc1C(=O)OCCC` [Dipropyl phthalate], the AC50 on human CYP2C19 (setting [1]) was found to be 7.01 µM; on human CYP2C9 (setting [2]) it was 30 µM; on CYP3A4 (setting [3]), 9.91 µM; on human CYP1A2 (setting [4]), 2.38 µM. At human CYP2D6, the “CYP2D6 AC50” value is “Inactive”.

As to `CCOC(=O)Cc1cccc2ccccc12` [Ethyl 1-naphthaleneacetate], the AC50 is 25.5 µM on human CYP2C19, 41.5 µM at human CYP2C9, 27.5 µM on CYP3A4 and 16.5 µM at human CYP1A2. For the same molecule, the “CYP2D6 AC50” value on human CYP2D6 was “Inactive”.
